Data as given in patent US10477863B2, “Use of herbicidal compositions for controlling unwanted vegetation” (BASF SE, priority 2015, dated 2019).

System: Amaranthus palmeri
Assay: Field test, post-emergence spray: visual injury of Palmer amaranth rated 0 to 100
Format: in vivo
Details: 3 days after treatment, 0.25% non-ionic surfactant
Source text: Dicamba was applied as Engenia™ herbicide [BAPMA salt-(bis(3-aminopropyl)methylamine))], while 2,4-DB was applied as the commercially available Butyrac® 200 (dimethylamine salt). Herbicides were applied at an appropriate weight of each product dissolved in 1 liter of water. All herbicide treatments were applied with 0.25% by volume of a non-ionic surfactant (Induce®; an adjuvant composition consisting of alkyl aryl polyoxyalkane ethers, alkanolamides, dimethyl siloxane and free fatty acids). The spray solution was applied by a CO2 powered backpack sprayer delivering the spray solution at a rate of 185 liter/ha. The spray solution was applied to a field naturally populated with Palmer amaranth (Amaranthus palmeri) with an average height of 4-6 inches in height, however, plants both larger and smaller plants were in the field at the time of application as well. Palmer amaranth was assessed for visual injury 3 days after treatment and injury was rated on a scale from 0 to 100, whereby 0 equals no herbicidal response and 100 equals complete control of the Palmer amaranth.

| SMILES | herbicidal activity against Amaranthus palmeri (% control), found (2,4-DB 17.5 g/ha a.i., Exp. No. 2) [% control] | herbicidal activity against Amaranthus palmeri (% control), found (2,4-DB 35 g/ha a.i., Exp. No. 3) [% control] | herbicidal activity against Amaranthus palmeri (% control), found (2,4-DB 52.5 g/ha a.i., Exp. No. 4) [% control] | herbicidal activity against Amaranthus palmeri (% control), found (dicamba 420 g/ha a.i., Exp. No. 1) [% control] |
| --- | --- | --- | --- | --- |
| O=C(O)CCCOc1ccc(Cl)cc1Cl [2,4-DB, 4-(2,4-Dichlorophenoxy)butanoic acid] | 0 | 5 | 15 |  |
| COc1c(Cl)ccc(Cl)c1C(=O)O [dicamba, 3,6-Dichloro-2-methoxybenzoic acid] |  |  |  | 60 |
